Results published in US7833513B2, “Treatment of Alzheimer's Disease” (Rhode Island Hospital, priority 2004, dated 2010).

Columns and labels:
Type in all cases: in vivo, Long Evans rat
[1] = tested on: phospho-GSK-3β, GSK-3β, phospho-Tau, Tau; experiment: ic-STZ ± PPAR agonist: Western blot analysis of GSK-3β and Tau; conditions: hypothalamus
Description: (§1) On the same day, sub-sets of the ic-STZ group were given a single intra-peritoneal injection of vehicle (saline), or a PPAR-α (GW7647; 25 ug/Kg), PPAR-δ (L-165,041; 2 μg/Kg), or PPAR-γ (F-L-Leu; 20 μg/Kg) activator (CalBiochem, Carlsbad, Calif.). […] In addition, at 4 weeks of age, memory and learning were evaluated using a Morris Water Maze (R. W. Hickey, M. Akino, S. Strausbaugh, G. M. De Courten-Myers. Use of the Morris water maze and acoustic startle chamber to evaluate neurologic injury after asphyxial arrest in rats. Pediatr Res 39(1) (1996), 77-84). The procedures and use of rats in these experiments were approved by the Lifespan-Rhode Island Hospital IACUC committee.
Western Blot Analysis: Western blot analysis was used to assess the levels of Tau, phospho-Tau, GSK-3β, phospho-GSK-3β, and β-actin in temporal lobe tissue (E. J. Rivera, A. Goldin, N. Fulmer, R. Tavares, J. R. Wands, S. M. de la Monte, J. Alzheimers Dis 8(3) (2005), 247-68). Briefly, samples containing 40 μg protein were fractionated by sodium dodecyl sulfate, polyacrylamide gel electrophoresis (SDS-PAGE) (F. Ausubel, R. Brent, R. Kingston, D. Moore, J. Seidman, J. Smnith, et al. Current Protocols in Molecular Biology. (2000)). and transferred to PVDF membranes. Non-specific binding sites were adsorbed with SuperBlock-TBS (Pierce, Rockford, Ill.). Membranes were incubated over night at 4° C. with primary antibody (0.1-1 μg/ml-individually optimized) diluted in Tris-buffered saline (TBS; 50 mM Tris, 150 mM NaCl, pH 7.4) containing 0.5% bovine serum albumin, 0.05% Tween-20, and 0.025% NaN3 (TBST-BSA). Immunoreactivity was detected using horseradish peroxidase (HRP) conjugated IgG (Pierce, Rockford, Ill.) diluted to 1:50,000 in TBST+0.5% cassein, Western Lightning enhanced chemiluminescence reagents (Perkin Elmer Life Sciences Inc., Boston, Mass.), and digital imaging. Immunoreactivity was quantified using the Kodak Digital Science Imaging Station (NEN Life Sciences, Boston, Mass.).
PPAR Agonist Treatment Reduces ic-STZ-Mediated AD-Type Neurodegeneration: In AD, the neuronal cytoskeletal lesions that correlate with dementia, i.e. neurofibrillary tangles, dystrophic neuritis, and neuropil threads, contain insoluble fibrillar structures that are generated in part from hyper-phosphorylated Tau (K. Iqbal, C. Alonso Adel, S. Chen, M. O. Chohan, E. El-Akkad, C. X. Gong, et al. Tau pathology in Alzheimer disease and other tauopathies. Biochim Biophys Acta 1739(2-3) (2005), 198-210). […] J Alzheimers Dis 7(1) (2005), 63-80). […] Therefore, it was of interest to characterize the effects of PPAR agonists on GSK-3β activity and Tau phosphorylation in ic-STZ-treated brains. The levels of phospho-GSK-3β, GSK-3β, phospho-Tau, Tau, and β-actin ([…]) were examined in temporal lobe and hypothalamus homogenates by Western blot analysis. Immunoreactivity was detected and quantified by digital imaging, and the mean levels of protein expression and ratios of phospho-GSK-3β/GSK-3β and phospho-Tau/Tau measured in 4 replicate samples are depicted graphically (FIG. 31). Phospho-GSK-3β immunoreactivity was detected with antibodies directed against the Ser21/9 motif, corresponding to the inactivate form of the kinase.

IGF-I receptor = molecular target: T1, IGF-I receptor (Rattus norvegicus, UniProt P24062); experiment: ic-STZ ± PPAR agonist: equilibrium and saturation binding to IGF-I receptors in the brain; conditions: for BMAX, IGF-1 receptor saturation binding in brains of treated rats: [125I]-IGF-I tracer, pooled brain membranes, 4 weeks after ic-STZ ± IP PPAR agonist; for IGF-I receptor binding: cerebellum
T1 construct: from tissue; host or cells: rat brain (temporal lobe)
Description: as §1
(§2) Membrane protein extracted from fresh frozen brain tissue was used for competitive equilibrium and saturation binding assays. For total binding in equilibrium binding assays, duplicate samples were incubated in 100 μl reactions containing binding buffer (100 mM HEPES, pH 8.0, 118 mM NaCl, 1.2 mM MgSO4, 8.8 mM dextrose, 5 mM KCl, 1% bovine serum albumin) and 100 nCi/ml of [^125I] […] To measure total binding in saturation binding assays, samples from 8-12 brains per group were pooled in equal proportions, and duplicate samples were incubated in 100 μl reactions containing binding buffer and 0.0031 to 1 μCi/ml of [^125I] […] To detect non-specific binding in the equilibrium and saturation binding assays, duplicate reactions were incubated with the same concentrations of radiolabeled tracer plus 0.1 μM unlabeled (cold) competitive ligand. After 16 hours incubation at 4° C., bound radiolabeled tracer was precipitated with bovine gamma globulin and polyethylene glycol 8000. The precipitate (bound ligand) and supernatant (free ligand) fractions were counted in an LKB CompuGamma CS Gamma counter. Specific binding was calculated by subtracting fmols of non-specific binding, i.e. amount bound in the presence of excess cold ligand, from total fmols bound in the absence of unlabeled competitive ligand. GraphPad Prism 4 software (San Diego, Calif.) was used to calculate saturation binding (BMAX) and binding affinity (Kd) for each data set.

IGF-II receptor = molecular target: T2, IGF-II receptor (Rattus norvegicus, UniProt G3V824); experiment: ic-STZ ± PPAR agonist: equilibrium and saturation binding to IGF-II receptors in the brain; conditions: for BMAX, IGF-II receptor saturation binding in brains of treated rats: [125I]-IGF-II tracer, pooled brain membranes, 4 weeks after ic-STZ ± IP PPAR agonist
T2 construct: from tissue; host or cells: rat brain (temporal lobe)
Description: as §1, §2

T1 sequence (P24062 31-737 limits assumed): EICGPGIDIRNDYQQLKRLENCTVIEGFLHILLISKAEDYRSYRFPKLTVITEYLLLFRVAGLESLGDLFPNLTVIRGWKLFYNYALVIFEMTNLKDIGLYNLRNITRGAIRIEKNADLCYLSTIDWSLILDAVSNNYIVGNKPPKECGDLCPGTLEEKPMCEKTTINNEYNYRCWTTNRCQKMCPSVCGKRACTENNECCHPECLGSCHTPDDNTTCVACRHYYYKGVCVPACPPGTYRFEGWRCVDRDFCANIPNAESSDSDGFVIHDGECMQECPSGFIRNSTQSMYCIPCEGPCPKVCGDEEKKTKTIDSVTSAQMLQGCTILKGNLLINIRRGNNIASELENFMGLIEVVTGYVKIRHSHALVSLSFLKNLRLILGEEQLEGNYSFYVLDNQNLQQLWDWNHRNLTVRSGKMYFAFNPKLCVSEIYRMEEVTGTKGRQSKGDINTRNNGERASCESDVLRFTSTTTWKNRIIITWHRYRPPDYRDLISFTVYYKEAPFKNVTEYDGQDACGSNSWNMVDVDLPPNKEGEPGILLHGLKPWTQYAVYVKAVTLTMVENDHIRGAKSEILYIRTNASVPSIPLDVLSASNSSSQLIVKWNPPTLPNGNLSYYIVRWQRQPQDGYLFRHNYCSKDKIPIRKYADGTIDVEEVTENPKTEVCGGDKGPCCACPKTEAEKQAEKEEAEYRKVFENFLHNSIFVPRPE
T1 sequence (P24062 742-1370 limits assumed): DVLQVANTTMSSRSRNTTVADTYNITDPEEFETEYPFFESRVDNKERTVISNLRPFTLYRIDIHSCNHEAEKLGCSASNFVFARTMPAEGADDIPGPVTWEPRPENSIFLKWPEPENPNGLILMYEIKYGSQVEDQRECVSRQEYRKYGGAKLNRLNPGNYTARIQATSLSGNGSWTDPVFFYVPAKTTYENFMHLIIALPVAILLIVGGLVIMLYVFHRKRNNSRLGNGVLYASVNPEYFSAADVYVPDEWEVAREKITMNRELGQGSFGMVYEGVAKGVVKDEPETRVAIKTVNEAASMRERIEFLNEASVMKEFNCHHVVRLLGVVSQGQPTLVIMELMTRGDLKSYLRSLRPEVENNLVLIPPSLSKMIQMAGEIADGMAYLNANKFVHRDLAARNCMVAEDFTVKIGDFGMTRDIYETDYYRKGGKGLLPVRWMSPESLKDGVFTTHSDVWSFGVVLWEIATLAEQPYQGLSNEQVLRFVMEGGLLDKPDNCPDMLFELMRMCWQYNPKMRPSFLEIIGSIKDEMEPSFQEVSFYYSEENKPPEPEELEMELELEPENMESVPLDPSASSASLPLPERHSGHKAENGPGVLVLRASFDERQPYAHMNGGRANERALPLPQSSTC
T2 sequence (G3V824 36-2481): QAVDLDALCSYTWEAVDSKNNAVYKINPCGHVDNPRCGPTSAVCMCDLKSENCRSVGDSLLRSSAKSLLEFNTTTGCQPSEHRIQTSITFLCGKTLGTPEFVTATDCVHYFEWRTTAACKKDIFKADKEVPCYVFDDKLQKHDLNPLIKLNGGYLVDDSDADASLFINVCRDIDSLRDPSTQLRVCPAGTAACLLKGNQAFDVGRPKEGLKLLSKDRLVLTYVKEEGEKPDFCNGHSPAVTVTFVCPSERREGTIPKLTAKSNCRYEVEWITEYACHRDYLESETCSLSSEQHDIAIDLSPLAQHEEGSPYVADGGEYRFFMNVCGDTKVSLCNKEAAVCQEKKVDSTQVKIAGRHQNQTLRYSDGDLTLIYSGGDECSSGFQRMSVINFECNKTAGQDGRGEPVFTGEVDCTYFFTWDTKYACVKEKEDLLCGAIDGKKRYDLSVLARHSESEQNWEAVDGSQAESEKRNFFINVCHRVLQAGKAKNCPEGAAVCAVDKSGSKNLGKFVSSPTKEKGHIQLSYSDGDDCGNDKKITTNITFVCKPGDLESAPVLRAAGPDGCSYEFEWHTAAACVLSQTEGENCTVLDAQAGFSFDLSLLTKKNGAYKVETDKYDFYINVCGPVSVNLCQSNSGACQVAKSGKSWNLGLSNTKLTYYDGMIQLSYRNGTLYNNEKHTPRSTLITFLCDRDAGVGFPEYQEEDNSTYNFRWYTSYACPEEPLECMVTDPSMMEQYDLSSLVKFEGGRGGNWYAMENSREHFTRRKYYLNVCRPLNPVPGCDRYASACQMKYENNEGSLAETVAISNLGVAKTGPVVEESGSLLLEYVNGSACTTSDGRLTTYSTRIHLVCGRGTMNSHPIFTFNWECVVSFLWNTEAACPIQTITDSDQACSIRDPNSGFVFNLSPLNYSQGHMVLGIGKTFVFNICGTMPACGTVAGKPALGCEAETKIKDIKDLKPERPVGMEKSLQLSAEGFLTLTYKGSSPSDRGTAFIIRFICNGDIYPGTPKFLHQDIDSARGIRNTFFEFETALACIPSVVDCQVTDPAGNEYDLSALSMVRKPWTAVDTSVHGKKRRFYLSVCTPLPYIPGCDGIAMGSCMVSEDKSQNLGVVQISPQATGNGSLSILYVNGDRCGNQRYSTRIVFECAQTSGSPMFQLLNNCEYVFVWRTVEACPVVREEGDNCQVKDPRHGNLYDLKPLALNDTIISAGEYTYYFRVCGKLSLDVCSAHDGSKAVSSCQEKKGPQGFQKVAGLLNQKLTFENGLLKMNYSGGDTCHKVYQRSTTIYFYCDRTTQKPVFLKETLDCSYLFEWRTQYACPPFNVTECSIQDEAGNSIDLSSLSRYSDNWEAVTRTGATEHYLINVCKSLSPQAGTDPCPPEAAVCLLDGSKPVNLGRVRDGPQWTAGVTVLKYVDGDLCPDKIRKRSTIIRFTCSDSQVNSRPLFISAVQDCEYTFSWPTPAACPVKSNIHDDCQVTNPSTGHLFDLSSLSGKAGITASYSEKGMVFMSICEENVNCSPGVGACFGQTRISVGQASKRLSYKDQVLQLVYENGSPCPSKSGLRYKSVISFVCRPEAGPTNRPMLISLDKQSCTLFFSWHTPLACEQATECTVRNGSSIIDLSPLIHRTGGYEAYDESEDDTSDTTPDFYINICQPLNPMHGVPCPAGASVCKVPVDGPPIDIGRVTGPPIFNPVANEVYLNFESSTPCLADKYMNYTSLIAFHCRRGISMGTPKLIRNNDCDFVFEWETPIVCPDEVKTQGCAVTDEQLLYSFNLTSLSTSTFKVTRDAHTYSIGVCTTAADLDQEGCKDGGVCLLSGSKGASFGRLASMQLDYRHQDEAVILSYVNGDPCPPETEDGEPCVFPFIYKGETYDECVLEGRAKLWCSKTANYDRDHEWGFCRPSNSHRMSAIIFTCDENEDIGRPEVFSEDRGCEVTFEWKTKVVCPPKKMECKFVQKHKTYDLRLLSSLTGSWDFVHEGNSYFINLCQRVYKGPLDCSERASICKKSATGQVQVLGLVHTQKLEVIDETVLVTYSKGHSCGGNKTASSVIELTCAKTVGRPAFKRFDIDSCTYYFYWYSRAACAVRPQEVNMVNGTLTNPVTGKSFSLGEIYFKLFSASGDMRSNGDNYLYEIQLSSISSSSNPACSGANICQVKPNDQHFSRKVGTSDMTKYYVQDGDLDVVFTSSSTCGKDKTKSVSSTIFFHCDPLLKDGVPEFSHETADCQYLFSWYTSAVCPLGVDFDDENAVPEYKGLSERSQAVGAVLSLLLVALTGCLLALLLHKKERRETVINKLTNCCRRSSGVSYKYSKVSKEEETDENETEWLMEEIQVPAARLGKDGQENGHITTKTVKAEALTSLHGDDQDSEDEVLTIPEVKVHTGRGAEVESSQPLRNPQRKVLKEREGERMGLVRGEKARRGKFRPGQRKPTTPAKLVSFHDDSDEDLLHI

| SMILES | phospho-GSK-3β level [1] | phospho-Tau level relative to control [1] | BMAX, IGF-1 receptor saturation binding in brains of treated rats (IGF-I receptor) [fmol/mg protein] | IGF-I receptor binding (IGF-I receptor) | BMAX, IGF-II receptor saturation binding in brains of treated rats (IGF-II receptor) [fmol/mg protein] | IGF-II receptor binding (IGF-II receptor; cerebellum) | BMAX for IGF-II receptor (in words) vs ic-STZ group (IGF-II receptor; rat, in vivo) | BMAX for IGF-I receptor (in words) vs ic-STZ group (IGF-I receptor; rat, in vivo) | total Tau protein level [1] | binding to IGF-I receptors (IGF-I receptor; hypothalamus or cerebellum) | binding to IGF-I receptors (IGF-I receptor; temporal lobe) | binding to IGF-II receptors (IGF-II receptor; temporal lobe and cerebellum) |
| --- | --- | --- | --- | --- | --- | --- | --- | --- | --- | --- | --- | --- |
| CCCc1c(OCCCOc2ccc(OCC(=O)O)cc2)ccc(C(C)=O)c1O [PPAR-δ agonist, L-165,041] | significantly increased | moderately reduced | 0.7399 | significantly increased | 20.22 | significantly increased | increased | – | – | – | – | – |
| CC(C)C[C@H](NC(=O)OCC1c2ccccc2-c2ccccc21)C(=O)O [PPAR-γ agonist, F-L-Leu] | significantly reduced | moderately reduced | 3.123 | significantly increased | 9.223 | – | – | increased | – | – | – | – |
| CC(C)(Sc1ccc(CCN(CCCCC2CCCCC2)C(=O)NC2CCCCC2)cc1)C(=O)O [PPAR-α agonist, GW7647] | significantly increased | significantly higher | 0.6361 | – | 7.291 | – | – | – | slightly higher levels of Tau relative to all other groups | – | – | – |
| CN(N=O)C(=O)NC1C(O)OC(CO)C(O)C1O (centres unmarked) [STZ] | – | – | 1.204 | – | 6.431 | – | – | – | – | not in the hypothalamus or cerebellum | significantly reduced | reduced |
